Reference: ChEMBL document CHEMBL1201862, “PubChem BioAssay data set” (2004)
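Compound exposure: 48 hours, 5 concentrations, 96-well plates. GI50 is the concentration that inhibits growth by half.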 Active and inactive are the calls of the source. No stated cut-off is given here; in the data, active = GI50 up to about 1.1 µM and inactive = higher.

Key:
Assay in all cases: DTP human tumour cell line panel, 48 h
MOLT-4 = system: MOLT-4
786-0 = system: 786-0
SK-MEL-5 = system: SK-MEL-5
A549 = system: A549
UACC-62 = system: UACC-62
NCI-H226 = system: NCI-H226
HCT-15 = system: HCT-15
HL-60 = system: HL-60
K562 = system: K562
CAKI-1 = system: CAKI-1
DU-145 = system: DU-145
Malme-3M = system: Malme-3M
OVCAR-5 = system: OVCAR-5
RXF 393 = system: RXF 393
SN12C = system: SN12C
SK-OV-3 = system: SK-OV-3
COLO 205 = system: COLO 205
LOX IMVI = system: LOX IMVI
MDA-MB-231 = system: MDA-MB-231
Hs-578T = system: Hs-578T

SMILES | GI50 (MOLT-4) | GI50 (786-0) | GI50 (SK-MEL-5) | GI50 (A549) | GI50 (UACC-62) | GI50 (NCI-H226) | GI50 (HCT-15) [µM] | GI50 (HL-60) | GI50 (K562) | GI50 (CAKI-1) | GI50 (DU-145) | GI50 (Malme-3M) | GI50 (OVCAR-5) | GI50 (RXF 393) | GI50 (SN12C) | GI50 (SK-OV-3) | GI50 (COLO 205) | GI50 (LOX IMVI) | GI50 (MDA-MB-231) | GI50 (Hs-578T)
Nc1ccc2nc3n(c2c1)C(=O)c1ccccc1-3 | > 100 µM (inactive) | > 100 µM (inactive) | > 100 µM (inactive) | > 100 µM (inactive) | > 100 µM (inactive) | > 100 µM (inactive) | > 100 | > 100 µM (inactive) | > 100 µM (inactive) | > 100 µM (inactive) | > 100 µM (inactive) | > 100 µM (inactive) | > 100 µM (inactive) | > 100 µM (inactive) | > 100 µM (inactive) | > 100 µM (inactive) | > 100 µM (inactive) | – | – | –
CCOc1cc(C2SCC(=O)N2c2ccc(Oc3ccc(Cl)cc3)c(Cl)c2)ccc1O (stereo not drawn) | 18.1 µM (inactive) | 25 µM (inactive) | 16.1 µM (inactive) | 17.9 µM (inactive) | 16.4 µM (inactive) | 15.6 µM (inactive) | 19.6 | 12.6 µM (inactive) | 27.1 µM (inactive) | 17.3 µM (inactive) | 16.6 µM (inactive) | 17.1 µM (inactive) | 20.2 µM (inactive) | – | 33 µM (inactive) | 21.6 µM (inactive) | 22.5 µM (inactive) | 19.4 µM (inactive) | 19.3 µM (inactive) | 17.3 µM (inactive)
NC(=O)CCC(NC(=O)c1c2ccccc2nc2ccccc12)C(=O)O (stereo not drawn) | > 100 µM (inactive) | > 100 µM (inactive) | > 100 µM (inactive) | > 100 µM (inactive) | > 100 µM (inactive) | > 100 µM (inactive) | > 100 | – | > 100 µM (inactive) | > 100 µM (inactive) | > 100 µM (inactive) | > 100 µM (inactive) | > 100 µM (inactive) | – | > 100 µM (inactive) | > 100 µM (inactive) | > 100 µM (inactive) | > 100 µM (inactive) | > 100 µM (inactive) | –
O=C(/C=C/c1cccs1)c1ccsc1 | 16.9 µM (inactive) | 28.8 µM (inactive) | 18.9 µM (inactive) | 38 µM (inactive) | 16.5 µM (inactive) | 21.1 µM (inactive) | 16.8 | 15.5 µM (inactive) | 17.5 µM (inactive) | 56.5 µM (inactive) | 50.2 µM (inactive) | 22.2 µM (inactive) | 26.9 µM (inactive) | – | 19.8 µM (inactive) | 33.4 µM (inactive) | 18.1 µM (inactive) | 17.2 µM (inactive) | > 10 µM (inactive) | –
N#CC(C#N)=C1NC(=O)C(c2ccccc2)C(=O)N1 (stereo not drawn) | > 100 µM (inactive) | > 100 µM (inactive) | > 100 µM (inactive) | > 100 µM (inactive) | > 100 µM (inactive) | > 100 µM (inactive) | > 100 | > 100 µM (inactive) | > 100 µM (inactive) | > 100 µM (inactive) | – | > 100 µM (inactive) | > 100 µM (inactive) | > 100 µM (inactive) | > 100 µM (inactive) | > 100 µM (inactive) | > 100 µM (inactive) | > 100 µM (inactive) | – | –
COc1ccc(OC)c(/C=N/N=C2\C(=O)Nc3c(Cl)cc(Cl)cc32)c1 | 23.8 µM (inactive) | 33.3 µM (inactive) | 56.1 µM (inactive) | > 100 µM (inactive) | 55.6 µM (inactive) | 82.6 µM (inactive) | 36.6 | 43.8 µM (inactive) | 36 µM (inactive) | 71.3 µM (inactive) | – | > 100 µM (inactive) | > 100 µM (inactive) | 66.2 µM (inactive) | > 100 µM (inactive) | 72.6 µM (inactive) | > 100 µM (inactive) | 47.6 µM (inactive) | 34 µM (inactive) | 20.4 µM (inactive)
CCCCCCCCC[C@@H]1CC(=O)OCC2OC(O[C@H](CCCCCCCCC)CC(=O)OCC3OC(O[C@H](CCCCCCCCC)CC(=O)OCC4OC(O1)C(O)C(O)C4O)C(O)C(O)C3O)C(O)C(O)C2O (stereo partly drawn) | 6.22 µM (inactive) | 0.957 µM (active) | 12.5 µM (inactive) | 14.7 µM (inactive) | 14.9 µM (inactive) | 3.9 µM (inactive) | 5.43 | 14.3 µM (inactive) | 3.47 µM (inactive) | 3.21 µM (inactive) | – | 8.83 µM (inactive) | 10.7 µM (inactive) | 17 µM (inactive) | 13.7 µM (inactive) | 13.4 µM (inactive) | 2.52 µM (inactive) | 3.52 µM (inactive) | – | –
Cc1cc2c(=O)c3ccccc3oc2c(C#N)c1C | > 100 µM (inactive) | > 100 µM (inactive) | > 100 µM (inactive) | > 100 µM (inactive) | – | – | – | > 100 µM (inactive) | > 100 µM (inactive) | > 100 µM (inactive) | > 100 µM (inactive) | > 100 µM (inactive) | > 100 µM (inactive) | > 100 µM (inactive) | – | > 100 µM (inactive) | > 100 µM (inactive) | – | – | > 100 µM (inactive)
NCCCN1CCN(CCCNc2ccc3nnn4c5ccccc5c(=O)c2c34)CC1 | 9.51 µM (inactive) | 9.06 µM (inactive) | 13.5 µM (inactive) | 28.2 µM (inactive) | 15.4 µM (inactive) | – | 20.7 | 8.59 µM (inactive) | 8.07 µM (inactive) | 14.6 µM (inactive) | 14.9 µM (inactive) | 18.8 µM (inactive) | 29.6 µM (inactive) | – | 9.02 µM (inactive) | 57.4 µM (inactive) | 4.07 µM (inactive) | 8.32 µM (inactive) | 13.1 µM (inactive) | 27.4 µM (inactive)
COCCOCOC(C)(C)[C@H](CCOC(C)=O)O[Si](c1ccccc1)(c1ccccc1)C(C)(C)C | 3.75 µM (inactive) | 18 µM (inactive) | 10.5 µM (inactive) | 21.1 µM (inactive) | 15.7 µM (inactive) | 3.72 µM (inactive) | 20.3 | 3.98 µM (inactive) | 5.75 µM (inactive) | 26.2 µM (inactive) | – | 16.6 µM (inactive) | 16.8 µM (inactive) | 16 µM (inactive) | 5.77 µM (inactive) | 35.4 µM (inactive) | 3.44 µM (inactive) | 14.1 µM (inactive) | – | –
CC(C)(C)O/C=C1/C(=O)OC2C[C@@H](O[Si](C)(C)C(C)(C)C)CC12 (stereo partly drawn) | – | > 100 µM (inactive) | 60.3 µM (inactive) | 58.9 µM (inactive) | – | 92.7 µM (inactive) | 49.3 | – | – | > 100 µM (inactive) | 29.4 µM (inactive) | 98.9 µM (inactive) | > 100 µM (inactive) | 0.759 µM (active) | 34.7 µM (inactive) | > 100 µM (inactive) | 72.9 µM (inactive) | 36.6 µM (inactive) | > 100 µM (inactive) | –
O=P(O)(O)c1ccc2c(c1)OCCOCCOCCOCCO2 | > 100 µM (inactive) | > 100 µM (inactive) | > 100 µM (inactive) | > 100 µM (inactive) | > 100 µM (inactive) | > 100 µM (inactive) | > 100 | > 100 µM (inactive) | > 100 µM (inactive) | – | > 100 µM (inactive) | > 100 µM (inactive) | – | – | > 100 µM (inactive) | > 100 µM (inactive) | > 100 µM (inactive) | > 100 µM (inactive) | > 100 µM (inactive) | > 100 µM (inactive)
CC[C@H](C)[C@H]1NC(=O)[C@@H](NC(=O)[C@@H](CC(C)C)N(C)C(=O)C2CCCN2C(=O)[C@H](C)O)[C@@H](C)OC(=O)[C@H](Cc2ccc(OC)cc2)N(C)C(=O)[C@@H]2CCCN2C(=O)[C@H](CCCCNC(=O)OCc2ccccc2)NC(=O)[C@H](C)C(=O)[C@H](C(C)C)OC(=O)C[C@@H]1O (stereo partly drawn) | 4.79 µM (inactive) | 5.56 µM (inactive) | 4.41 µM (inactive) | 3.9 µM (inactive) | 8.2 µM (inactive) | 12.7 µM (inactive) | > 25 | > 25 µM (inactive) | 7.29 µM (inactive) | 16.8 µM (inactive) | 9.84 µM (inactive) | 4.89 µM (inactive) | 7.28 µM (inactive) | > 25 µM (inactive) | 5.64 µM (inactive) | 7.69 µM (inactive) | 3.91 µM (inactive) | 7.4 µM (inactive) | – | 1.41 µM (inactive)
O=S(=O)(O)c1cc(O)c(/N=N/c2ccc(O)cc2O)c2ccccc12 | 42.2 µM (inactive) | > 100 µM (inactive) | > 100 µM (inactive) | 59.3 µM (inactive) | – | 3.17 µM (inactive) | 64 | 80.5 µM (inactive) | > 100 µM (inactive) | > 100 µM (inactive) | – | 76.4 µM (inactive) | 46.8 µM (inactive) | > 100 µM (inactive) | > 100 µM (inactive) | 49.1 µM (inactive) | 38.1 µM (inactive) | 53.1 µM (inactive) | 85.7 µM (inactive) | > 100 µM (inactive)
O=CC12c3ccccc3C(c3ccccc31)C1C(=O)NC(=O)C12 (stereo not drawn) | 97.3 µM (inactive) | > 100 µM (inactive) | 37.2 µM (inactive) | > 100 µM (inactive) | > 100 µM (inactive) | > 100 µM (inactive) | > 100 | > 100 µM (inactive) | 66.8 µM (inactive) | 54.2 µM (inactive) | > 100 µM (inactive) | 90.2 µM (inactive) | > 100 µM (inactive) | 76.2 µM (inactive) | > 100 µM (inactive) | > 100 µM (inactive) | > 100 µM (inactive) | 50.1 µM (inactive) | > 100 µM (inactive) | –
COc1ccc(-n2sc3ncccc3c2=O)cc1 | 8.18 µM (inactive) | 15.9 µM (inactive) | 20 µM (inactive) | 69.5 µM (inactive) | 36.4 µM (inactive) | 39.4 µM (inactive) | 22.6 | 3.58 µM (inactive) | – | – | 39.4 µM (inactive) | 15.8 µM (inactive) | 24.8 µM (inactive) | – | 38.2 µM (inactive) | > 100 µM (inactive) | 16.9 µM (inactive) | 30.8 µM (inactive) | 21.7 µM (inactive) | 26.3 µM (inactive)
